Square brackets hold non-standard residues; d marks the D form. Peptide text beside a SMILES is read from it. * marks the point of attachment. dPhe(4-I) = N[C@H](Cc1ccc(I)cc1)C(=O)O; d1Nal = N[C@H](Cc1cccc2ccccc12)C(=O)O; Bta = N[C@@H](Cc1csc2ccccc12)C(=O)O; Tic = O=C(O)[C@@H]1Cc2ccccc2CN1; Octanoyl = CCCCCCCC(=O)*
Key:
Format in all cases: cell-based
mMC4R = mMC4R (Mus musculus, UniProt P56450); experiment: CRE/β-galactosidase reporter gene bioassay, agonist activity at mMC4R; settings: for mMC4R Fold Diff.: fold difference in EC50 vs peptide 1, negative prefix = more potent than 1
Chain of mMC4R (P56450 whole entry): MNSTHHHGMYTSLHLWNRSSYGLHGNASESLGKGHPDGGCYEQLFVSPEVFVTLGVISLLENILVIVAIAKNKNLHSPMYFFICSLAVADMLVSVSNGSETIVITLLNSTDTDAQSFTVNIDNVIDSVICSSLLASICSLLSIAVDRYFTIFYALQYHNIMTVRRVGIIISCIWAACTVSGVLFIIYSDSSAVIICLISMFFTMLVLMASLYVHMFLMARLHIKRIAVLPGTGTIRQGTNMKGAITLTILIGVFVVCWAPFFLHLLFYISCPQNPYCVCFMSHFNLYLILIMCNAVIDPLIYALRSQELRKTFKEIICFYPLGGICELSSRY

mMC3R = mMC3R (Mus musculus, UniProt P33033); experiment: cell-based; settings: for mMC3R Fold Diff: fold difference in EC50 vs peptide 1, negative prefix = more potent than 1
Chain of mMC3R (P33033 whole entry): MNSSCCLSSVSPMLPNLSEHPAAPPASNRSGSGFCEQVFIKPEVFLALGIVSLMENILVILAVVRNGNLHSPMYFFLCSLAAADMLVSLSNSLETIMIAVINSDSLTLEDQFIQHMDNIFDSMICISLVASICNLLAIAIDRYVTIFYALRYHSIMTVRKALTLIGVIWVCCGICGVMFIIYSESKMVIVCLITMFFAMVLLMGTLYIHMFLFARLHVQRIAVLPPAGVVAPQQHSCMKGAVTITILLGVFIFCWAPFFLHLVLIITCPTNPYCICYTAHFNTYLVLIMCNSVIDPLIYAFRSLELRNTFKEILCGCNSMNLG

mMC1R = mMC1R (Mus musculus, UniProt Q01727); experiment: CRE/β-galactosidase reporter gene bioassay, agonist activity at mMC1R; settings: for mMC1R Fold Diff: fold difference in EC50 vs peptide 1, negative prefix = more potent than 1; for EC50: mMC1R EC50, agonist, HEK-293 cells stably expressing receptor, ±SEM; for mMC1R pharmacology in words: comparisons are to reference peptide 1
Chain of mMC1R (Q01727 whole entry): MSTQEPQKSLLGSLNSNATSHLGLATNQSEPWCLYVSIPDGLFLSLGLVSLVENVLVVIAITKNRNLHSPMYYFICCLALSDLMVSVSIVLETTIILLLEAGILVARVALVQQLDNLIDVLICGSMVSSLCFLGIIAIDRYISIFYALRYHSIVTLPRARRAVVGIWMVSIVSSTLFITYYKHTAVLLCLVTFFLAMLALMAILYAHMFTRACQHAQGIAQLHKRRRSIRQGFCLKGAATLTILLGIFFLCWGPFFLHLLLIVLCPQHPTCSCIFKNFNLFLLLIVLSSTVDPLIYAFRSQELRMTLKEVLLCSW

mMC5R = mMC5R (Mus musculus, UniProt P41149); experiment: CRE/β-galactosidase reporter gene bioassay, agonist activity at mMC5R; settings: for mMC5R Fold Diff.: fold difference in EC50 vs peptide 1, negative prefix = more potent than 1; for mMC5R fold less potent than peptide 1: less potent than 1; for mMC5R pharmacology in words: comparisons are to reference peptide 1
Chain of mMC5R (P41149 whole entry): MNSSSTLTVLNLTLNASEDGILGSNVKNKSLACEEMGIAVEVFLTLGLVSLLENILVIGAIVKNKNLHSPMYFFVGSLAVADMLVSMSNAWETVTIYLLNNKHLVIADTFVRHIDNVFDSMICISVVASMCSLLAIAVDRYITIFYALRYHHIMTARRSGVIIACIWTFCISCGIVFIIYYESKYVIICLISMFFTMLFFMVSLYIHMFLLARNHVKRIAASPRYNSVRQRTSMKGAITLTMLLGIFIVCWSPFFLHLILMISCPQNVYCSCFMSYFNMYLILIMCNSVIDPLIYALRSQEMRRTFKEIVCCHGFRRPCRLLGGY

EC50 (mMC4R) | mMC4R Fold Diff. (mMC4R) | mMC4R fold less potent than compound 1 (mMC4R; less potent than 1) | EC50 (mMC3R) | mMC1R Fold Diff (mMC1R) | EC50 (mMC1R) | EC50 (mMC5R) | mMC5R Fold Diff. (mMC5R) | mMC5R fold less potent than peptide 1 (mMC5R) | mMC5R pharmacology in words (mMC5R) | mMC3R relative percentage of stimulation at 100 μM (mMC3R; 100000.0) | Compound | mMC3R Fold Diff (mMC3R) | selectivity for the mMC1R, fold difference as compared to the mMC3R (mMC1R; agonist EC50) | selectivity for the mMC1R, fold difference as compared to the mMC4R (mMC1R; agonist EC50) | selectivity for the mMC1R, fold difference as compared to the mMC5R (mMC1R; agonist EC50) | mMC1R pharmacology in words (mMC1R)
7900 ± 2400 nM | 576 | 580 fold | > 100 µM | 57 | 8000 ± 3000 nM | 4800 ± 1700 nM | 905 | approximately 1000 fold |  |  | CC(=O)N[C@@H](Cc1c[nH]c2ccccc12)C(=O)N[C@H](Cc1ccccc1)C(=O)N[C@@H](CCCNC(=N)N)C(=O)N[C@@H](Cc1csc2ccccc12)C(N)=O [Peptide 25, Ac-Trp-DPhe-Arg-3Bal-NH2] (Ac-W[dF]R[Bta]-NH2) |  |  |  |  | 
2800 ± 1000 nM | 205 |  | > 100 µM | 28 | 3900 ± 1900 nM | 3800 ± 2100 nM | 720 |  |  |  | CC(=O)N[C@@H](Cc1ccccc1)C(=O)N[C@H](Cc1cccc2ccccc12)C(=O)N[C@@H](CCCNC(=N)N)C(=O)N[C@@H](Cc1c[nH]c2ccccc12)C(N)=O [Peptide 21, Ac-Phe-DNal(1’)-Arg-Trp-NH2] (Ac-F[d1Nal]RW-NH2) |  |  |  |  | 
 |  |  |  |  |  | 5.3 ± 1.6 nM |  |  |  |  | CC(=O)N[C@@H](Cc1cnc[nH]1)C(=O)N[C@H](Cc1ccccc1)C(=O)N[C@@H](CCCN=C(N)N)C(=O)N[C@@H](Cc1c[nH]c2ccccc12)C(N)=O [Peptide 1, Ac-His-DPhe-Arg-Trp-NH2, reference compound] |  |  |  |  | 
180 ± 40 nM | 13 |  |  |  | 210 ± 30 nM | 58 ± 7 nM | 11 |  | decreased potencies | 50%−65% | CCCCCCCC(=O)N[C@@H](Cc1c[nH]c2ccccc12)C(=O)N[C@H](Cc1ccccc1)C(=O)N[C@@H](CCCNC(=N)N)C(=O)N[C@@H](Cc1c[nH]c2ccccc12)C(N)=O [Peptide 10, Octanoyl-Trp-DPhe-Arg-Trp-NH2] (Octanoyl-W[dF]RW-NH2) |  |  |  |  | equipotent

Further lines, the compound ahead of its results:

Compound | EC50 (mMC4R) | mMC4R Fold Diff. (mMC4R) | mMC4R fold less potent than compound 1 (mMC4R; less potent than 1) | EC50 (mMC3R) | mMC1R Fold Diff (mMC1R) | EC50 (mMC1R) | EC50 (mMC5R) | mMC5R Fold Diff. (mMC5R) | mMC5R fold less potent than peptide 1 (mMC5R) | mMC5R pharmacology in words (mMC5R) | mMC3R relative percentage of stimulation at 100 μM (mMC3R; 100000.0) | mMC3R Fold Diff (mMC3R) | selectivity for the mMC1R, fold difference as compared to the mMC3R (mMC1R; agonist EC50) | selectivity for the mMC1R, fold difference as compared to the mMC4R (mMC1R; agonist EC50) | selectivity for the mMC1R, fold difference as compared to the mMC5R (mMC1R; agonist EC50) | mMC1R pharmacology in words (mMC1R)
CC(=O)N[C@@H](Cc1c[nH]cn1)C(=O)N[C@H](Cc1ccc(I)cc1)C(=O)N[C@@H](CCCNC(=N)N)C(=O)N1Cc2ccccc2C[C@H]1C(N)=O [Peptide 31, Ac-His-(pI)DPhe-Arg-Tic-NH2] (Ac-H[dPhe(4-I)]R[Tic]-NH2) | 640 ± 60 nM | 46 |  | 2.9 ± 0.4 µM | −6 | 24 ± 4 nM | 130 ± 30 nM | 25 |  | less potent |  | 5 | 120 fold | 26 fold | 6 fold | more potent
CCCCCCCC(=O)N[C@@H](Cc1c[nH]cn1)C(=O)N[C@H](Cc1ccccc1)C(=O)N[C@@H](CCCNC(=N)N)C(=O)N1Cc2ccccc2C[C@H]1C(N)=O [Peptide 4, Octanoyl-His-DPhe-Arg-Tic-NH2] (Octanoyl-H[dF]R[Tic]-NH2) | 1700 ± 300 nM | 120 |  | 6.9 ± 0.4 µM | −20 | 7.4 ± 2.1 nM | 270 ± 20 nM | 50 | 50 fold | decreased potencies |  | 12 |  |  |  | 
CCCCCCCC(=O)N[C@@H](Cc1c[nH]cn1)C(=O)N[C@H](Cc1ccccc1)C(=O)N[C@@H](CCCNC(=N)N)C(=O)N[C@@H](Cc1ccccc1)C(N)=O [Peptide 5, Octanoyl-His-DPhe-Arg-Phe-NH2] (Octanoyl-H[dF]RF-NH2) | 110 ± 10 nM | 8 |  | 0.29 ± 0.06 µM | −7 | 19.4 ± 2.1 nM | 26 ± 3 nM | 5 |  | decreased potencies |  |  |  |  |  | 
